Data as given in patent EP2537923A1, “Method for activation of specific peripheral blood mononuclear cells” (Oncotyrol Center for Personalized Cancer Medicine GmbH, priority 2011, dated 2012).

Test system: human PBMCs
Test: Stimulation of PBMCs with anti-CD1b antibody and/or IL-2, cytokines measured in culture supernatants
Format: cell-based
Settings: PMB at 10 µg/ml (60 U/ml); anti-CD16 as Fc γ receptor blocking antibody
Source text: PBMCs are then separated from whole blood or from leukapheresis products. Any method for separating mononuclear cells may be used. For example, the Ficoll separation method, i.e., a Ficoll-Paque density gradient is frequently used. For this purpose LSM1077 Lymphocyte Separation Medium (PAA, Pasching, Austria) in combination with Leucosep (greiner bio-one, Frickenhausen, Germany) can be used for the optimal separation of PBMCs.
The whole PBMCs or the CD56-positive PBMCs obtained are resuspended preferably at cell numbers of 1.0-1.5 x 10^6/ml in a cell culture medium such as RPMI-1640 (Lonza, Basel, Switzerland), AIM-V (Invitrogen, Carlsbad, CA, USA) or CellGro SCGM (CellGenix, Freiburg, Germany). The cell culture medium may be further supplemented with autologous or clinical quality heterologous serum or plasma at 1-20%. There is no limitation for the culture vessels used, which may be a plate, laboratory dish, flask, bag typically used for cell cultivation.
An antibody directed against CDlb (clone B-B5 from Diaclone, Besancon, France or clone WM25 from ImmunoKontact via AMS Biotechnology, Lugano, Switzerland) is added to these cultures. […] Activation as detected by the BD FastImmune (BD Biosciences, San Jose, CA, USA) of NK cells and T cells (both αß T cells and γδ T cells) occurs already within the first 12 to 16 hours. […]

For polymyxin B [PMB], the “effect on IFN-γ production / response induced by CDlb antibodies” value was “failed to abolish”.
